# According to patent publication US6939561B2, “Methods and compositions for polyene antibiotics with reduced toxicity” (Wisconsin Alumni Research Foundation, priority 2001, dated 2005):
# What was measured:
# [1] = UV/VIS spectroscopy, I/IV ratio (self-aggregation state of AmB); assay type: physicochemical; conditions: intensity at 348 nm to 409 nm, 4 μg/ml AmB, PBS pH 7.4
# Protocol: Freeze-dried samples of AmB in PEO-b-PHSA micelles with 11 and 70% stearate substitution were dissolved in PBS, pH=7.4, at 4 μg/ml of AmB. DMSO was used to solubilize AmB in PBS, pH=7.4, at a similar concentration. The level of DMSO in the final sample was <1% (v/v). The UV/VIS spectra of AmB in different samples were recorded from 300 nm to 450 nm.
# Cryptococcus neoformans = test: Minimal inhibitory concentration (MIC) of AmB, microwell dilution; assay type: cell-based; conditions: 35° C., 24 hr
# Protocol: (§1) AmB in PEO-b-PHSA micelles was dissolved in isotonic sodium chloride solution giving an AmB level of 200 μg/ml. AmB was dissolved in DMSO and diluted further with the isotonic sodium chloride solution to give the same concentration. The level of DMSO in the final solution was <1% v/v. Samples of PEO-b-PHSA micelles in sodium chloride solution were also used as controls. Solutions of 20 μl from these samples were diluted with the culture medium (RPMI 1640) (80 μl) in the first microwell. The next 11 microwells had serial two-fold diluted solutions. To each microwell, 100 μl of the inoculum containing 5×10^3 CFU/ml of fungal pathogen (Candida albicans, Aspergillus fumigatus or Cryptococcus neoformans) in culture medium was added, giving a total volume of 200 μl per well. Microwell containers were incubated at 35° C. for 24 hr. Organism and medium controls were performed simultaneously to check the growth of organisms and sterility of culture medium, respectively. […] All tests were repeated three times.
# Aspergillus fumigatus = test: as above; assay type: cell-based; conditions: 35° C., 24 hr
# Protocol: as §1
# Candida albicans = test: as above; assay type: cell-based; conditions: 35° C., 24 hr
# Protocol: as §1
# human red blood cells = test: Hemolytic activity of AmB toward human red blood cells; assay type: cell-based; conditions: human RBCs, 37° C., 30 min
# Protocol: Human blood was collected and centrifuged (2000 rpm). The supernatant and buffy coat were pipetted off and the red blood cells (RBCs) were diluted with an isotonic phosphate buffer, pH 7.4. The proper dilution factor was estimated from the UV/VIS absorbance of hemoglobin at 576 nm in the supernatant after RBCs were lysed by 20 μg/ml of AmB. A properly diluted sample of RBCs gives an absorbance of 0.4-0.5. Solutions of diluted RBCs (2.5 ml) with varied levels of AmB in different samples were incubated at 37° C. for 30 min. Samples were then placed in ice to stop hemolysis. The unlysed RBCs were removed by centrifugation at 14,000 rpm (about 7000×g) for 20 sec. The supernatant was collected and analyzed for hemoglobin by UV/VIS spectroscopy at 576 nm. The percent of hemolyzed RBCs was determined using this equation: % hemolysis=100(Abs−Abso)/(Abs100−Abso), where Abs, Abso and Abs100 are the absorbance for the sample, control with no AmB and control in the presence of 20 μg/ml AmB, respectively.
smiles,measurement,setting,value
"C[C@@H]1[C@H](O)[C@@H](C)/C=C/C=C/C=C/C=C/C=C/C=C/C=C/[C@H](O[C@@H]2O[C@H](C)[C@@H](O)[C@H](N)[C@@H]2O)C[C@@H]2O[C@](O)(C[C@@H](O)C[C@@H](O)[C@H](O)CC[C@@H](O)C[C@@H](O)CC(=O)O[C@H]1C)C[C@H](O)[C@H]2C(=O)O [AmB, Amphotericin B]",I/IV ratio,[1],about 1.2
same,"MIC, AmB level inhibiting growth of C. neoformans",Cryptococcus neoformans,0.3 µg/mL
same,"MIC, AmB level inhibiting growth of A. fumigatus",Aspergillus fumigatus,0.45 µg/mL
same,"MIC, AmB level inhibiting growth of C. albicans",Candida albicans,0.3 µg/mL
same,AmB level causing 100% hemolysis,human red blood cells,about 1 μg/ml
